Here are results for three molecules from patent publication US12303547B2, “Compound, use, pharmaceutical composition, method of diagnosis, method of treatment, and method of transportation and/or internalization of a compound into eukaryotic cells” (priority 2018, dated 2025).

Where no end group is shown, it is not given here.

The subject of one assay is HUVECs. Description: Charge delivery capacity, uptake of Alexa 488 labelled peptides by HUVECs (HCS). In kind it is cell-based, human. The note with it: for uptake by HUVECs (HCS): 10 μM; for detection within HUVECs (HCS): after 4 h, 0.5, 1, 10 and 20 μM. Here is the method: Endothelial cell culture was obtained from umbilical cords by digestion of umbilical cord veins with collagenase as described previously (19) with some modifications (20). Endothelial cells between the first and third passage were used for all experiments. Cells were seeded in 96-well culture plates (Advance, Greiner), special for immunofluorescence, at a density of 8×10^3 cells/well pre-coated with 2% (w/v) gelatin in EGM®-2 BulletKit® medium for HUVECs (Lonza, CC-3162) allowed to seed at 37° C. in a humidified atmosphere of 5% CO2. Cells were treated and incubated in RPMI medium containing 1% fetal bovine serum (FBS) and Alexa-Fluor 488 labeled peptides (C-ter/Seq ID No 1, P4/Seq ID No 2, or P4-Cter/Seq ID No 3) at different concentrations and times. After treatment, the cells were fixed with 4% paraformaldehyde and analyzed in ImageXpress Micro Confocal High-Content Imaging (HCS, Molecular Devices) in Widefield mode and the number of vesicles containing the peptides in the cells was quantified using MetaXpress High-Content Image Acquisition and Analysis Software (Molecular Devices).
Peptides Cter, P4 and P4-C-ter were labeled with cell-impermeable Alexa Fluor 488. The capacity of P4 and P4-Cter peptides bound to Alexa 488 by HUVECs at 1 h, 2 h and 4 h was analyzed using different concentrations: 0.5 μM, 1 μM, 10 μM and 20 μM (FIG. 9). This was compared with uptake of C-ter peptide linked to Alexa 488 (concentration of 0.5 μM, 1 μM, 10 μM and 20 μM) after 4 hours, as shown in previous experiments for SK-MEL-28 (FIG. 3).

Assay [1] has as its system SK-MEL-28 human melanoma cells. Description: MTT cell viability assay, SK-MEL-28. Type of assay: cell-based. Particulars: SK-MEL-28, 48 h, increasing concentrations; Amblyomin-X 20 μM. From the text: (§1) Human melanomas (SK-MEL-28), pancreatic adenocarcinomas (MIA-PaCa-2) and murine renal adenocarcinoma cells (RENCA) were obtained and cultured according to the instructions of the American Type Culture Collection (ATCC, Manassas, VA). Human dermal fibroblast cells (HDFa) were obtained from Invitrogen. Endothelial cells were obtained from human umbilical veins (HUVECs), as previously described^11. The study received prior approval from the Research Ethics Committee and the free and informed consent form was obtained from female donors. HUVECs were seeded in T75 flasks previously covered with 2% gelatin and cultured in RPMI medium, supplemented with 10% fetal bovine serum, L-glutamine (2 mM), streptomycin sulfate ([…]), penicillin (100 U/ml) sodium pyruvate ([…]), 2-mercaptoethanol ([…]), ECGF ([…]) and heparin (45 μg/ml), pH 7.4. In all experiments, HUVEC were used in the second or third passages. All cell lines were routinely cultured in a humidified 5% CO2 incubator at 37° C.
(§2) Cell viability was measured by the 3-(4,5-dimethylthiazol-2-yl)-2,5-diphenyltetrazolium bromide (MTT) assay. […] Afterwards, the medium was discarded, the dark blue crystalline formazan product was dissolved in […] of dimethyl sulfoxide (DMSO), and the absorbance was measured in a Spectra MAX 190 microplate reader (Molecular Devices, Sunnyvale, USA) at 540 nm.

In another assay the test system is HDFa. Description: Cell uptake study (confocal), HDFa. Type of assay: cell-based, human. The note with it: 4 h, preliminary experiments. From the text: (§3) The compound of the invention (C-ter) was chemically coupled with the amine reactive dye (Alexa fluor 488 […] tetra fluorophenyl ester (TFP)) using the Microscale Alexa Fluor® 488 Protein Labeling kit (Molecular Probes), following the manufacturer's instructions. Other entities (Amblyomin-X and its fragment called Kunitz domain) were also modified as described above, for comparative analysis.
(§4) The dye-conjugated protein was named 488-Amblyomin-X. Briefly, cells (10^4 cells/well) were seeded into 96-well plates. Once stabilized, the culture medium was replaced and cells were incubated with 488-Amblyomin-X (20 μM) at 37° C. for 2 h, 4 h and 24 h. The cells were then incubated with Alexa Fluor 555 transferrin (100 μg/ml), the cholera toxin B subunit Alexa Fluor 555 (50 μg/ml) or Alexa Fluor 555 dextran (1 mg/ml) in binding medium to 37° C. for 20 min. Nuclei were stained with Hoechst 332. Then, green and red fluorescence were monitored using a Molecular Devices ImageXpress Micro Confocal plate scanning microscope (Molecular Devices, Sunnyvale, CA) or using LSM 510 Meta confocal microscope (Zeiss, Jena, Germany) followed by evaluation of overlap between 488-Amblyomin-X and endocytosis markers using MetaXpress software (Molecular Devices, Sunnyvale, CA).

The test system of another assay is Tumor cell lines. Kind of assay: Co-localization with endocytosis and intracellular markers. Type of assay: cell-based, human. On the procedure: as §4
Tumor cells were cultured in 96-well plates (10^4 cells/well) and treated with 488-Amblyomin-X (20 μM) to indicate times. Cells were washed twice with PHEM-glycine buffer (2 mM HEPES, 10 mM EGTA, 2 mM MgCl2, 60 mM Pipes, 100 mM glycine, pH 6.9) and fixed with 4% paraformaldehyde for 3 h at room temperature. The washing step was repeated and then the cells were incubated with a cell permeabilizing solution (0.1% Tween in PHEM) for 5 minutes at room temperature. Samples were washed and incubated with 1% BSA blocking solution for 30 minutes at room temperature. Next, the primary antibody was incubated overnight at 4° C.: (i) caveolin-1 anti-human mouse 1:100 (Santa Cruz Biotechnology, Inc., USA); (ii) 1:50 anti-human LAMP-2 rabbit (Abcam). […] Next, green and red fluorescence were monitored by a Molecular Devices ImageXpress Micro Confocal Plate Scanning Microscope (Molecular Devices, Sunnyvale, CA) followed by evaluation of overlap between 488-Amblyomin-X and endocytosis markers using MetaXpress software (Molecular Devices, Sunnyvale, CA) or vesicle interactions by Imaris software.

In assay [2] the test system is murine renal adenocarcinoma cells (RENCA). Kind of assay: MTT cell viability assay, RENCA. Type of assay: cell-based. The note with it: 48 h, preliminary results.
From the text: as §1, §2
(Tetrazolium dyes change colour on reduction, which living cells bring about.)

Another assay has as its system Mia PaCa-2. Description: Cell uptake study with Alexa Fluor 488 labelled molecules, Mia PaCa-2. In kind it is cell-based, human. The note with it: for Uptake by tumor cells: Alexa Fluor 488 labelled.
From the text: as §3
as §4, with “Once stabilized, the culture medium was replaced and cells were incubated with 488-Amblyomin-X (20 μM) at 37° C. for 2 h, 4 h and 24 h.” left out

Another assay concerns SK-MEL-28 cells. Description: Role of PS in uptake (Na3VO4 or Annexin V pretreatment). In kind it is cell-based, human. Here is the method:
To investigate the role of PS in C-ter uptake, cells were pretreated with Annexin V (5 μg/mL) or Na3VO4 (25 μM) and then incubated with fluorochrome-conjugated molecules for 4 hours.

The subject of assay [3] is human dermal fibroblasts (HDFa). Description: MTT cell viability assay, HDFa. Type of assay: cell-based. The note with it: 48 h, preliminary results.
From the text: as §1, §2

For assay [4], the system named is human umbilical vein endothelial cells (HUVEC). Kind of assay: MTT cell viability assay, HUVEC. In kind it is cell-based. Particulars: 48 h, preliminary results.
From the text: as §1, §2

The subject of assay [5] is MIA PaCa-2 pancreatic adenocarcinoma cells. Description: MTT cell viability assay, MIA PaCa-2. Type of assay: cell-based, human. The note with it: MIA PaCa-2, 48 h, increasing concentrations; Amblyomin-X 20 μM.
From the text: as §1, §2

The next assay relates to HUVEC. Kind of assay: Cell uptake study (confocal), HUVEC. Type of assay: cell-based, human. The note with it: 4 h, preliminary experiments.
From the text: as §3, §4

The subject of another assay is SK-MEL-28. Description: Cell uptake study with Alexa Fluor 488 labelled molecules, SK-MEL-28. In kind it is cell-based, human. Particulars: for Uptake by tumor cells: Alexa Fluor 488 labelled.
From the text: as §3
as §4, with “Once stabilized, the culture medium was replaced and cells were incubated with 488-Amblyomin-X (20 μM) at 37° C. for 2 h, 4 h and 24 h.” left out

Take “P4-Alexa 488: peptide P4 (SEQ ID No. 2) labeled with Alexa Fluor 488 (YAIGYSSKDYK; also: Alexa Fluor 488 label) [reference compound]”: the “uptake by HUVECs (HCS)” value in the assay with HUVECs (4 h) is given as “poorly detected”. For the same molecule, the “detection within HUVECs (HCS)” value in the assay on HUVECs is “not detected within cells”.
With “C-ter: polypeptide of SEQ ID No. 1, 50 amino acids, carboxy-terminal end of Amblyomin-X, prepared by chemical synthesis (EEQTHFHFESPKLISFKVQDYWILNDIMKKNLTGISLKSEEEDADSGEID)”, the “cell viability (MTT)” value in [1] is listed as “no change was observed”; in assay [2], “decreasing the viability of RENCA by 1 μM”; in assay [3], “no change was observed”; in assay [4], “no change was observed”; in assay [5], “no change was observed”. In addition, the “uptake by non-tumor cells” value in the assay with HDFa and in the assay with HUVEC was “uptake by these cells” throughout. Further, the “overlap with endocytosis markers (dextran, CTxB, transferrin)” value in the assay with Tumor cell lines (Alexa Fluor 555 labelled markers, shortest treatment time) is listed as “the highest were with CTxB”. For the same molecule, the “co-localization with late endosomal markers” value with Tumor cell lines (Lyso Tracker, LAMP-2) is “found in co-localization with late endosomal markers, Lyso Tracker and LAMP-2”. Besides, the “co-localization with cav-1” value in the assay on Tumor cell lines (indirect immunofluorescence) is given as “occurred mainly after 4 hours of treatment”. Also, the “cells positive for nuclear translocation” value with Mia PaCa-2 (MIA PaCa-2) and with SK-MEL-28 (SK-MEL-28) was “few cells were positive” each time. The “Uptake by tumor cells” value in the assay with Mia PaCa-2 (Mia PaCa-2, 0.25 h) was 3.45 ± 1.34; with Mia PaCa-2 (Mia PaCa-2, 0.5 h) it was 4.84 ± 1.95; with Mia PaCa-2 (Mia PaCa-2, 1 h), 13.74 ± 7.15; with Mia PaCa-2 (Mia PaCa-2, 2 h), 604.99 ± 24.47; in the assay on Mia PaCa-2 (Mia PaCa-2, 4 h) it was 976.55 ± 74.55; with SK-MEL-28 (SK-MEL-28, 0.25 h) it was 30.84 ± 17.2. In addition, the “Uptake by tumor cells” value in the assay with SK-MEL-28 (SK-MEL-28, 0.5 h) amounted to 35.56 ± 21.09; in the assay on SK-MEL-28 (SK-MEL-28, 1 h), 62.17 ± 11.20; in the assay on SK-MEL-28 (SK-MEL-28, 2 h) it was 558.48 ± 189.00; with SK-MEL-28 (SK-MEL-28, 4 h) it was 1210.74 ± 379.14. For the same molecule, in the assay with SK-MEL-28 cells (SK-MEL-28, Na3VO4 pretreatment, then 4 h), the “uptake after pretreatment with Na3VO4” value was “not affected”. Moreover, in the assay with SK-MEL-28 cells (pretreatment with Na3VO4 or Annexin V), the “tumor cell penetration after pretreatment with Na3VO4 or Annexin V” value is reported as “retains its ability to penetrate tumor cells”. Further, in the assay on SK-MEL-28 (SK-MEL-28, 20 μM, 4 h, Alexa Fluor 488 complexed), the “uptake by cells (green fluorescence, confocal)” value is given as “taken up”.

B1: P4-Cter-Alexa488: hybrid peptide P4-Cter (SEQ ID No. 3) labeled with Alexa Fluor 488 (conjugate)
chain: YAIGYSSKDYKEEQTHFHFESPKLISFKVQDYWILNDIMKKNLTGISLKSEEEDADSGEID
modifications: also: Alexa Fluor 488 label
Turning to B1, the “uptake by HUVECs (HCS)” value in the assay with HUVECs (1 h) is recorded as “efficiently absorbed”. In the assay with HUVECs, the “detection within HUVECs (HCS)” value is “captured and quantified”.
